One compound from patent US12590100B2, “Tetrahydro-spiroindoline-pyrrolopyrrole-triones inhibitors of the NRF2-β-TrCP interaction for use in the treatment of fatty liver disease” (Universidad Autonoma De Madrid, priority 2021, dated 2026) can be followed below.

Series [1] has as its system cell viability. The series can be described thus: MTT assay of cell viability/toxicity. The class given is cell-based. The conditions noted are these: all doses used.
The subject of series [2] is β-TrCP-NRF2 interaction. The series can be described thus: NRF2 levels after LY294002 (PI3K inhibition, GSK-3β activation) in Keap1−/− MEFs. The class given is cell-based, mouse. The note with it: PHAR 10 μM 1 h, then LY294002 20 μM 15-240 min.
For series [3], the system named is peritoneal macrophages (Nrf2-4KI). In words: Inflammatory response in LPS-stimulated peritoneal macrophages from Nrf2-4KI mice. Format: cell-based, mouse. The note with it: Nrf2-4KI peritoneal macrophages, PHAR 10 μM 8 h. The procedure: FIG. 8. PHAR reduces inflammatory response in peritoneal macrophages originating from Nrf2^+/+ mice but not in peritoneal macrophages originating from LPS-stimulated Nrf2-4KI mice. Peritoneal macrophages originating from wild-type (WT) and serum-deprived NRF2 knock-in (Nrf2-4Ki) mice were pretreated with 10 μM of PHAR for 8 h. 0.1% DMSO was used as a vehicle. After that period of time, the cells were treated with 100 ng/ml of LPS for 4 h. A), representative immunoblots originating from both cell types of NRF2, HO1, pre-IL1β, COX2, NOS2, and GAPDH as a loading control. B), densitometric analysis of NRF2 and HO1 protein levels of the representative immunoblots of (A), expressed as a ratio of protein/GAPDH levels. The data is depicted as means±SEM (n=3). Statistical analysis was performed with two-way ANOVA followed by the Bonferroni test to compare inter-group differences. *p<0.05; **p<0.01; ***p<0.001 vs. LPS. C), Densitometric analysis of pre-IL1b, COX2, and NOS2 protein levels of the representative immunoblots of (A), expressed as a ratio of protein/GAPDH levels. The data is depicted as means±SEM (n=3). Statistical analysis was performed with two-way ANOVA followed by the Bonferroni test to compare inter-group differences. *p<0.05; **p<0.01; ***p<0.001 vs. LPS. D), the mRNA levels of Hmox1, Il1 β, Cox2, Nos2, Il6, and Tnfα were determined by means of qRT-PCR and normalized by means of average Gapdh, Thp, and β-actin. The data is depicted as mean±SEM (n=3). Statistical analysis was performed with two-way ANOVA followed by the Bonferroni test to check inter-group differences. *p<0.05; **p<0.01; ***p<0.001 vs. LPS.
As a complementary approach, peritoneal macrophages extracted from Nrf2^+/+ mice and knock-in mice generated in the laboratory having 4 serines substituted with alanines in critical positions for phosphorylation by priming kinase/priming kinases and by GSK-3β (Serines 335, 338, 342, and 347) were used. Both cell types were pretreated with DMSO or PHAR (10 μM, 8 h) and then stimulated with LPS (100 ng/ml, 4 h). […]

Series [4] relates to STAM mice (NAFLD). In words: STAM fatty liver model, treatment from NASH stage (week 8) to week 10. Format: in vivo, mouse. The source says:
FIG. 13. PHAR slows fatty liver progression. The progressive damage of liver cells as a consequence of their metabolic alteration and chronic low-grade inflammation leads to their progression towards fibrosis and the consequent loss of liver function. The present invention makes it possible to treat patients diagnosed with fatty liver to prevent its progression towards more severe forms of liver disease such as fibrosis and cirrhosis. A) Scheme of the liver damage progression model. B) Representative spectra derived from MRI studies. At starting point (week 8; W8, NASH inflammation), mice subjected to the STAM protocol had fatty liver imitating the status of newly diagnosed patients. At this point, treatment with PHAR (50 mg/kg i.p; 5 days per week) began until week 10 (W10, fibrosis). C) standardized quantification of the amount of liver fat per mouse measured by MRI. Statistical analysis was performed using a two-way ANOVA followed by a Bonferroni test to compare the differences between treatments in control and STAM groups. **p<0.01. D) profiles of evolution of the amount of liver fat per mouse measured by MRI at week 8 (NASH) and week 10 (fibrosis). E) H&E histochemical analysis of mice treated with PHAR vs vehicle in control mice and in STAM mice together with oil red staining for determination of liver fat levels. F) levels of transcripts corresponding to the metabolism of fatty acids (Cpt1a, Scd1, Cd36 and Fasn). G) Levels of transcripts corresponding to pro-inflammatory cytokines (Tnf, Il6 and Infg) and anti-inflammatory (Il10 and Il4). For F and G, relative mRNA levels were determined by qRT-PCR and normalized by averaging Gapdh, Tbp, and β-actin. Statistical analysis was performed using a bidirectional ANOVA followed by a Bonferroni test to compare the differences between PHAR-treated mice vs vehicle-treated mice in the control and STAM models. *p<0.05; ***p<0.001.
After seeing the beneficial role of PHAR in the prevention of NASH, we analyzed its role in progression of liver damage. The progressive damage of hepatocytes is a consequence of their metabolic alteration and chronic low-grade inflammation and oxidative stress (FIG. 13A). We treated mice in the NASH stage (week 8), 5 days a week with an IP dose of 50 mg/kg PHAR until week 10. The analysis of fat accumulation was measured by MRI both at the initial point of treatment and at the end point (FIG. 13B). Vehicle-treated STAM mice underwent a progressive accumulation of lipids. […] Therefore, PHAR reduces low-grade chronic inflammation and liver fat accumulation.

Where [5] appears, read: STAM mice, week 8 to week 10, liver mRNA.

As to `O=C1[C@@H]2[C@H](Cc3c[nH]c4ccccc34)N[C@]3(C(=O)Nc4ccc(Cl)cc43)[C@@H]2C(=O)N1c1ccc2c(c1)OCCO2` [PHAR], the “toxicity (cell viability, MTT)” value in series [1] is on record as “does not present toxicity at any of the doses used”. The “NRF2 levels under LY294002 after PHAR pre-treatment” value in series [2] was “prevented LY294002-induced NRF2 degradation, but furthermore favored NRF2 accumulation”. Also, in series [3], the HO-1 induction result is “the same HO-1 induction” and the NRF2 induction result is “considerably lower”. In series [3] (LPS 100 ng/ml 4 h), the “protective effect against the inflammatory response” value is on record as “lost in almost all the inflammatory markers analyzed”. For the same compound, the “liver fat (oil red staining)” value in series [4] (STAM mice, week 8 to week 10, IP 50 mg/kg) is “protection against liver fat accumulation”. In series [4] (STAM mice, week 8 to week 10, IP 50 mg/kg 5 days a week), the “lipid accumulation in liver by MRI” value was “significant protection against lipid accumulation”. For the same compound, in series [4] (setting [5]), the “expression of Cpt1a (lipid catabolism)” value is reported as “increasing the expression of Cpt1a”, the “expression of Fasn (lipid synthesis)” value was “decrease in the expression of Fasn”, the “expression of anti-inflammatory cytokines” value is recorded as “promotes an increase in anti-inflammatory cytokines” and the “expression of pro-inflammatory cytokines” value was “attenuates the expression of pro-inflammatory cytokines”. The “liver histology (H&E)” value in series [4] (control and STAM mice, week 8 to week 10, IP 50 mg/kg) is recorded as “normal liver histology”.
